Source: US20220144841A1, “TRISUBSTITUTED PYRAZOLO [1,5-A] PYRIMIDINE COMPOUNDS AS CDK7 INHIBITORS” (THE TRANSLATIONAL GENOMICS RESEARCH INSTITUTE, priority 2019, published 2022)
Where a name gives a salt, the structure may show the parent alone.

Biological target: T1, CDK7/CycH/MAT1 (Homo sapiens, UniProt P50613)
T1 construct: purchased ProQinase 0366-0360-4
Assay: Kinase ADP-Glo Assay
Type: biochemical
Details: ADP-Glo assay (compounds without *), ATP 1 μM, 60 minutes at room temperature
Protocol: Assay Buffer: 50 mM HEPES, 3 mM MgCl2, 3 mM MnCl2, 1 mM DTT, 3 μM Na3VO4, pH 7.5
Substrate RB: CTF Peptide (ProQinase #: 0040-0000-6)
ADP-Glo™ Assay (Promega #: V9101): ATP: 10 mM, ADP-Glo™ Reagent, Kinase Detection Reagent
384-well white assay plates
A ten point serial dilution of compound was prepared at 5× concentration in assay buffer with the final assay concentrations starting at 30 μM, 10 μM, 3 μM, 1 μM . . . 0 μM. Enzyme, substrate, and ATP were used at 40 ng, 200 ng (or 400 ng)^+ and 1 μM, respectively. The assay plate was set up by mixing the components in a total reaction volume of 10 μL per well. The plate was centrifuged gently for 10 seconds and incubated at room temperature (RT) for 60 minutes in the dark. The ADP-Glo Reagent and kinase detection reagent were added and incubated as recommended. The reaction was quantified by measuring luminescence on the Perkin Elmer Envision plate reader. Data was analyzed using Graphpad Prism 7 software. *With CDK2 enzyme, 400 ng of substrate was used.

T1 sequence (P50613 whole entry): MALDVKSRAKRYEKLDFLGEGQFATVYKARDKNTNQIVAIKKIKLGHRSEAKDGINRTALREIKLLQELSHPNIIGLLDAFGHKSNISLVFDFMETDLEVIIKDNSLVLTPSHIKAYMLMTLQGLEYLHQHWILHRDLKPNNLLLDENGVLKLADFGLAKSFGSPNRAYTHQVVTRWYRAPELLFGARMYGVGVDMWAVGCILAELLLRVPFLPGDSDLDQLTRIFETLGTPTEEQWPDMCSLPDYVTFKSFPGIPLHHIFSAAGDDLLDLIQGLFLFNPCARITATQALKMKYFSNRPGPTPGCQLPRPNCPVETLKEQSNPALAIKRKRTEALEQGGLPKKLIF
T1 sequence (P51946 whole entry partner): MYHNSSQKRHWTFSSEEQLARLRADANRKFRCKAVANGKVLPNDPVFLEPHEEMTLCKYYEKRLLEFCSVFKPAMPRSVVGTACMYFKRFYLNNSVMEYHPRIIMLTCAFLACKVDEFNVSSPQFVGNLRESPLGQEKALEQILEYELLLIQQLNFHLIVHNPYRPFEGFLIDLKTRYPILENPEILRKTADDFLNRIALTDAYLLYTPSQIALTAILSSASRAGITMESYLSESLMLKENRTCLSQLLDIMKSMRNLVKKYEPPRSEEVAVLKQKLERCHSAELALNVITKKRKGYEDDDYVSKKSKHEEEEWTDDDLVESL
T1 sequence (P51948 whole entry partner): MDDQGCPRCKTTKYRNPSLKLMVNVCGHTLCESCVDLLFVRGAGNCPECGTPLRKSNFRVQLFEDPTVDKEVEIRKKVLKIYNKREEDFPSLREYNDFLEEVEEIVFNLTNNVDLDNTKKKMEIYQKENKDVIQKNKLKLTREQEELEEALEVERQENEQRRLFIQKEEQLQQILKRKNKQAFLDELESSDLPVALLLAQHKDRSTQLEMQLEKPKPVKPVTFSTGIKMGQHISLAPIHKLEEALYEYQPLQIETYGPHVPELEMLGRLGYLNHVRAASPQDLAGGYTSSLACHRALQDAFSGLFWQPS

| Compound | IC50 [nM] |
| --- | --- |
| O[C@@H]1CNCC[C@H]1COc1cc(Nc2cccc(F)c2)n2ncc(C3CC3)c2n1 (relative stereo) [Compound I-53, trans-4-((3-cyclopropyl-7-((3-fluorophenyl)amino)pyrazolo [1,5-a]pyrimidin-5-yl)oxymethyl)piperidin-3-ol] | < 100 |
| Cc1cc(F)cc(Nc2cc(O[C@@H]3CNC[C@@H](O)C3)nc3c(C4CCC4)cnn23)c1 (relative stereo) [Compound I-57, trans-5-((3-cyclobutyl-7-((3-fluoro-5-methylphenyl)amino)pyrazolo [1,5-a]pyrimidin-5-yl)oxy)piperidin-3-ol] | < 100 |
| Fc1cccc(Nc2cc(O[C@H]3CCCNC3)nc3c(C4CC4)cnn23)c1 [Compound I-4, (S)-3-cyclopropyl-N-(3-fluorophenyl)-5-((piperidin-3-yl)oxy)pyrazolo[1,5-a]pyrimidin-7-amine] | < 100 |
| N[C@H]1CC[C@H](Nc2cc(Nc3cccc(F)c3)n3ncc(C4CC4)c3n2)CC1 [Compound I-6, Trans-N^5-(4-aminocyclohexyl)-3-cyclopropyl-N^7-(3-fluorophenyl)pyrazolo[1,5-a]pyrimidine-5,7-diamine] | 100 to 1000 |
| N[C@H]1CC[C@@H](Nc2cc(Nc3cccc(F)c3)n3ncc(C4CC4)c3n2)CC1 [Compound I-7, Cis-N^5-(4-aminocyclohexyl)-3-cyclopropyl-N^7-(3-fluorophenyl)pyrazolo[1,5-a]pyrimidine-5,7-diamine] | 100 to 1000 |
| FC(F)(F)c1cccc(Nc2cc(N[C@H]3CCCNC3)nc3c(C4CC4)cnn23)c1 [Compound I-8] | < 100 |
| N#Cc1cccc(Nc2cc(N[C@H]3CCCNC3)nc3c(C4CC4)cnn23)c1 [Compound I-9, (S)-3-((3-cyclopropyl-5-((piperidin-3-yl)amino)pyrazolo[1,5-a]pyrimidin-7-yl)amino)benzonitrile] | < 100 |
| FC(F)(F)Cc1cccc(Nc2cc(N[C@H]3CCCNC3)nc3c(C4CC4)cnn23)c1 [Compound I-10] | 100 to 1000 |
| O[C@@H]1CNCC[C@H]1CNc1cc(Nc2cccc(F)c2)n2ncc(C3CC3)c2n1 [Compound I-11, (3S,4S)-4-(((3-cyclopropyl-7-((3-fluorophenyl)amino)pyrazolo [1,5-a]pyrimidin-5-yl)amino)methyl)piperidin-3-ol] | < 100 |
| O[C@@H]1CNCC[C@@H]1CNc1cc(Nc2cccc(F)c2)n2ncc(C3CC3)c2n1 [Compound I-12, (3S,4R)-4-((3-cyclopropyl-7-((3-fluorophenyl)amino)pyrazolo [1,5-a]pyrimidin-5-yl)aminomethyl)piperidin-3-ol] | 100 to 1000 |
| Fc1cccc(Nc2cc(NC[C@H]3CCCNC3)nc3c(C4CC4)cnn23)c1 [Compound I-13] | > 1000 |
| Fc1cccc(Nc2cc(OC[C@H]3CCCNC3)nc3c(C4CC4)cnn23)c1 [Compound I-14] | 100 to 1000 |
| N#Cc1cccc(Nc2cc(NC[C@@H]3CCNC[C@H]3O)nc3c(C4CC4)cnn23)c1 [Compound I-15, (3S,4S)-3-((3-cyclopropyl-5-(((3-hydroxy)piperidin-4-yl)methylamino)pyrazolo[1,5-a]pyrimidin-7-yl)amino)benzonitrile] | 100 to 1000 |
| N#Cc1cc(F)cc(Nc2cc(NC[C@@H]3CCNC[C@H]3O)nc3c(C4CC4)cnn23)c1 [Compound I-16, (3S,4S)-3-((3-cyclopropyl-5-(((3-hydroxy)piperidin-4-yl)methylamino)pyrazolo[1,5-a]pyrimidin-7-yl)amino)-5-fluorobenzonitrile trifluoroacetate salt] | > 1000 |
| O[C@@H]1CNCC[C@H]1CNc1cc(Nc2cccc(F)c2)n2ncc(C3CC3)c2n1 [Compound I-17] | 100 to 1000 |
| Clc1cccc(Nc2cc(N[C@H]3CCCNC3)nc3c(C4CC4)cnn23)c1 [Compound I-18] | < 100 |
| O[C@H]1CCNC[C@@H]1Nc1cc(Nc2cccc(F)c2)n2ncc(C3CC3)c2n1 [Compound I-21, (3S,4S)-3-((3-cyclopropyl-7-((3-fluorophenyl)amino)pyrazolo [1,5-a]pyrimidin-5-yl)amino)piperidin-4-ol hydrochloride] | > 1000 |
| O[C@@H]1CNC[C@@H](Nc2cc(Nc3cccc(F)c3)n3ncc(C4CC4)c3n2)C1 [Compound I-22, hydrochloride] | > 1000 |

| Compound | IC50 [nM] |
| --- | --- |
| N#Cc1cnn2c(NCc3cccc(F)c3)cc(N[C@H]3CCCNC3)nc12 [Compound I-29, (S)-7-((3-fluorobenzyl)amino)-5-((piperidin-3-yl)amino)pyrazolo[1,5-a]pyrimidine-3-carbonitrile] | 100 to 1000 |
| Cc1cccc(CNc2cc(N[C@H]3CCCNC3)nc3c(C#N)cnn23)c1 [Compound I-30, (S)-7-((3-methylbenzyl)amino)-5-((piperidin-3-yl)amino)pyrazolo[1,5-a]pyrimidine-3-carbonitrile] | 100 to 1000 |
| O[C@H]1CNCC[C@@H]1CNc1cc(Nc2cccc(F)c2)n2ncc(C3CC3)c2n1 [Compound I-45, (3R,4R)-4-((3-cyclopropyl-7-((3-fluorophenyl)amino)pyrazolo [1,5-a]pyrimidin-5-yl)aminomethyl)piperidin-3-ol] | < 100 |
| O[C@H]1CNCC[C@@H]1CNc1cc(Nc2cc(F)cc(F)c2)n2ncc(C3CC3)c2n1 [Compound I-46, (3R,4R)-4-((3-cyclopropyl-7-((3,5-difluorophenyl)amino)pyrazolo[1,5-a]pyrimidin-5-yl)aminomethyl)piperidin-3-ol] | 100 to 1000 |
| O[C@@H]1CNCC[C@H]1CNc1cc(Nc2cc(F)cc(F)c2)n2ncc(C3CC3)c2n1 [Compound I-47, (3S,4S)-4-((3-cyclopropyl-7-((3,5-difluorophenyl)amino)pyrazolo[1,5-a]pyrimidin-5-yl)aminomethyl)piperidin-3-ol] | 100 to 1000 |
| N#Cc1cccc(Nc2cc(NC[C@H]3CCNC[C@@H]3O)nc3c(C4CC4)cnn23)c1 [Compound I-48, (3R,4R)-3-(((3-cyclopropyl-5-(3-hydroxypiperidin-4-yl)methylamino)pyrazolo[1,5-a]pyrimidin-7-yl)amino)benzonitrile] | < 100 |
| Cc1cc(F)cc(Nc2cc(NC[C@H]3CCNC[C@@H]3O)nc3c(C4CC4)cnn23)c1 [Compound I-49, (3R,4R)-4-((3-cyclopropyl-7-((3-fluoro-5-methylphenyl)amino)pyrazolo [1,5-a]pyrimidin-5-yl)aminomethyl)piperidin-3-ol] | < 100 |
| O[C@H]1CNCC[C@@H]1CNc1cc(Nc2cccc(F)c2)n2ncc(C3CCC3)c2n1 [Compound I-50] | < 100 |
| CS(=O)(=O)c1cccc(Nc2cc(NC[C@H]3CCNC[C@@H]3O)nc3c(C4CC4)cnn23)c1 [Compound I-51, (3R,4R)-((3-cyclopropyl-7-((3-methylsulfonylphenyl)amino)pyrazolo[1,5-a]pyrimidin-5-yl)aminomethyl)piperidin-3-ol] | < 100 |
| Cc1cc(F)cc(Nc2cc(NC[C@H]3CCNC[C@@H]3O)nc3c(C4CCC4)cnn23)c1 [Compound I-52, (3R,4R)-((3-cyclobutyl-7-((3-fluoro-5-methylphenyl)amino)pyrazolo [1,5-a]pyrimidin-5-yl)aminomethyl)piperidin-3-ol] | < 100 |
| Cc1cc(C#N)cc(Nc2cc(NC[C@H]3CCNC[C@@H]3O)nc3c(C4CC4)cnn23)c1 [Compound I-54, (3R,4R)-3-((3-cyclopropyl-5-((3-hydroxypiperidin-4-yl)methylamino)pyrazolo[1,5-a]pyrimidin-7-yl)amino)-5-methylbenzonitrile] | < 100 |
| N#Cc1cc(F)cc(Nc2cc(NC[C@H]3CCNC[C@@H]3O)nc3c(C4CCC4)cnn23)c1 [Compound I-55, (3R,4R)-3-((3-cyclobutyl-5-((3-hydroxypiperidin-4-yl)methylamino)pyrazolo[1,5-a]pyrimidin-7-yl)amino)-5-fluorobenzonitrile] | < 100 |
| Cc1cc(F)cc(Nc2cc(N[C@@H]3CNC[C@@H](O)C3)nc3c(C4CCC4)cnn23)c1 [Compound I-56, (3S,5S)-5-((3-cyclobutyl-7-((3-fluoro-5-methylphenyl)amino)pyrazolo [1,5-a]pyrimidin-5-yl)amino)piperidin-3-ol] | 100 to 1000 |
| Cc1cc(F)cc(Nc2cc(O[C@H]3CCCNC3)nc3c(C4CCC4)cnn23)c1 [Compound I-58, (S)-3-cyclobutyl-N-(3-fluoro-5-methylphenyl)-5-((piperidin-3-yl)oxy)pyrazolo[1,5-a]pyrimidin-7-amine] | < 100 |
| Cc1cc(F)cc(Nc2cc(NC[C@H]3CCCNC3)nc3c(C4CCC4)cnn23)c1 [Compound I-59, (S)-3-cyclobutyl-N^7-(3-fluoro-5-methylphenyl)-N^5-((piperidin-3-yl)methyl)pyrazolo[1,5-a]pyrimidine-5,7-diamine] | > 1000 |
| N#Cc1cc(F)cc(Nc2cc(OC[C@H]3CCCNC3)nc3c(C4CCC4)cnn23)c1 [Compound I-60, (S)-3-((3-cyclobutyl-5-((piperidin-3-yl)methoxy)pyrazolo[1,5-a]pyrimidin-7-yl)amino)-5-fluorobenzonitrile] | > 1000 |
| Cc1cc(Nc2cc(O[C@H]3CCCNC3)nc3c(C4CC4)cnn23)cc(C(F)(F)F)c1 [Compound I-61, (S)-3-cyclopropyl-N-(5-methyl-3-trifluoromethylphenyl)-5-((piperidin-3-yl)oxy)pyrazolo[1,5-a]pyrimidin-7-amine] | 100 to 1000 |
